Tested on: apyrase
Test: Screen for apyrase inhibitors (Method 1, in vitro phosphate-release absorbance assay)
Assay type: biochemical
Conditions: inhibitor conc at 1 mM stock, 1 hr room temperature, absorbance 630 nm; rounded average of two assay results
In short: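 Phosphate-release colorimetric assay (Windsor method) in 60 mM Hepes, 3 mM MgCl2, 3 mM CaCl2, 3 mM ATP, pH 6.5, with compound or DMSO control added. Released phosphate developed with ammonium molybdate and ascorbic acid/TCA, then stopped with citrate/acetic acid.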

Row | SMILES | % Inhibition of Apyrase
1 | O=C(Nc1cccc(S(=O)(=O)Nc2cccc(C(F)(F)F)c2)c1)c1ccco1 [I-759, N-(3-(N-(3-(trifluoromethyl)phenyl)sulfamoyl)phenyl) furan-2-carboxamide] | 28%
2 | COc1ccc(C(=O)Nc2cccc(S(=O)(=O)Nc3nccs3)c2)cc1[N+](=O)[O-] [I-760, 4-methoxy-3-nitro-N-(3-(N-(thiazol-2-yl)sulfamoyl)phenyl)benzamide] | 26%
3 | COc1ccccc1NS(=O)(=O)c1cccc(NC(=O)c2ccc(C)s2)c1 [I-761, N-(3-(N-(2-methoxyphenyl)sulfamoyl)phenyl)-5-methylthiophene-2-carboxamide] | 17%
4 | O=C(Nc1cccc(S(=O)(=O)Nc2cccc(C(F)(F)F)c2)c1)c1ccoc1 [I-762, N-(3-(N-(3-(trifluoromethyl)phenyl)sulfamoyl)phenyl) furan-3-carboxamide] | 16%
5 | CN(c1ccccc1)S(=O)(=O)c1cccc(NC(=O)c2nn(C)c(=O)c3ccccc23)c1 [I-763, 3-methyl-N-(3-(N-methyl-N-phenylsulfamoyl)phenyl)-4-oxo-3,4-dihydrophthalazine-1-carboxamide] | 15%
6 | O=C(Nc1cccc(S(=O)(=O)Nc2ccc(Cl)cc2)c1)c1ccc(Cl)nc1 [I-764, 6-chloro-N-(3-(N-(4-chlorophenyl)sulfamoyl)phenyl)nicotinamide] | 15%
7 | CCOc1ccc(NS(=O)(=O)c2cccc(NC(=O)c3ccncc3)c2)cc1Br [I-765, N-(3-(N-(3-bromo-4-ethoxyphenyl)sulfamoyl)phenyl) isonicotinamide] | 15%
8 | COc1ccccc1NS(=O)(=O)c1cccc(NC(=O)c2cncc(Br)c2)c1 [I-766, 5-bromo-N-(3-(N-(2-methoxyphenyl)sulfamoyl)phenyl) nicotinamide] | 14%
9 | Cc1cnc(C(=O)Nc2cccc(S(=O)(=O)N(C)c3ccccc3)c2)cn1 [I-767, 5-methyl-N-(3-(N-methyl-N-phenylsulfamoyl)phenyl)pyrazine-2-carboxamide] | 12%
10 | CN(c1ccccc1)S(=O)(=O)c1cccc(NC(=O)c2ccncc2)c1 [I-768, N-(3-(N-methyl-N-phenylsulfamoyl)phenyl)isonicotinamide] | 7%
11 | Cc1cnc(C(=O)Nc2cccc(S(=O)(=O)Nc3cccc(C(F)(F)F)c3)c2)cn1 [I-769, 5-methyl-N-(3-(N-(3-(trifluoromethyl)phenyl)sulfamoyl)phenyl) pyrazine-2-carboxamide] | 7%
12 | COc1ccccc1NS(=O)(=O)c1cccc(NC(=O)c2cccnc2OC)c1 [I-770, 2-methoxy-N-(3-(N-(2-methoxyphenyl)sulfamoyl)phenyl) nicotinamide] | 6%
13 | COc1ccc(NS(=O)(=O)c2cccc(NC(=O)c3cccs3)c2)cc1 [I-771, N-(3-(N-(4-methoxyphenyl)sulfamoyl)phenyl)thiophene-2-carboxamide] | 6%
14 | O=C(Nc1cccc(S(=O)(=O)Nc2ccc(SC(F)F)cc2)c1)c1ccco1 [I-772, N-(3-(N-(4-((difluoromethyl)thio)phenyl)sulfamoyl)phenyl) furan-2-carboxamide] | 6%
15 | CN(c1ccccc1)S(=O)(=O)c1cccc(NC(=O)c2cc(C3CC3)on2)c1 [I-773, 5-cyclopropyl-N-(3-(N-methyl-N-phenylsulfamoyl)phenyl)isoxazole-3-carboxamide] | 3%
16 | COc1ccccc1NS(=O)(=O)c1cccc(NC(=O)c2ccc(=O)n(C)n2)c1 [I-774, N-(3-(N-(2-methoxyphenyl)sulfamoyl)phenyl)-1-methyl-6-oxo-1,6-dihydropyridazine-3-carboxamide] | 3%
17 | O=C(Nc1cccc(S(=O)(=O)Nc2ccc(Cl)cc2)c1)c1cnccn1 [I-775, N-(3-(N-(4-chlorophenyl)sulfamoyl)phenyl)pyrazine-2-carboxamide] | 3%
